The source made the active and inactive calls. No cut-off for these calls is given here.
Legend:
[1] = system: HepG2; test: Induction of apoptosis in human HepG2 cells assessed as necrotic cells at 150 nM measured after 48 hrs by Annexin V-FITC/PI double staining based flow cytometry analysis (Rvb= 0.13%); type: functional
[2] = system: HeLa; test: Cytotoxicity against human HeLa cells assessed as inhibition of cell proliferation measured after 48 hrs by MTT assay; type: functional, cell-based
[3] = system: HepG2; test: Induction of mitochondrial membrane potential loss in human HepG2 cells assessed as proportion of cells with hyperpolarized mitochondria at 50 nM measured after 48 hrs by JC-1 staining based flow cytometry analysis (Rvb= 80.9%); type: functional
[4] = system: HepG2; test: Induction of mitochondrial membrane potential loss in human HepG2 cells assessed as proportion of cells with depolarized mitochondria at 75 nM measured after 48 hrs by JC-1 staining based flow cytometry analysis (Rvb= 9.1%); type: functional
[5] = Toxicity in zebrafish AB assessed as mortality at 0.05 to 2 uM measured at 72 hrs postfertilization; design: species or system Danio rerio; conditions: in vivo, dose 0.05-2 µM
[6] = system: HepG2; test: Induction of mitochondrial membrane potential loss in human HepG2 cells assessed as proportion of cells with hyperpolarized mitochondria at 150 nM measured after 48 hrs by JC-1 staining based flow cytometry analysis (Rvb= 80.9%); type: functional
[7] = system: HepG2; test: Induction of apoptosis in human HepG2 cells assessed as live cells at 150 nM measured after 48 hrs by Annexin V-FITC/PI double staining based flow cytometry analysis (Rvb= 94.8%); type: functional
[8] = system: HepG2; test: Antitumor activity against human HepG2 cells xenografted in zebra fish AB assessed as tumor growth inhibition at 1 uM measured after 48 hrs by fluorescence microscopic analysis; type: functional, cell-based
[9] = system: L02; test: Cytotoxicity against human HL7702 cells assessed as inhibition of cell proliferation measured after 48 hrs by MTT assay; type: cell-based; conditions: L02, 48 h
[10] = system: HepG2; test: Cytotoxicity against human HepG2 cells assessed as increase in release of LDH measured after 48 hrs by LDH assay; type: functional, cell-based; conditions: dose 100-200 nM
[11] = system: HepG2; test: Induction of apoptosis in human HepG2 cells assessed as live cells at 100 nM measured after 48 hrs by Annexin V-FITC/PI double staining based flow cytometry analysis (Rvb= 94.8%); type: functional
[12] = system: HepG2; test: Induction of mitochondrial membrane potential loss in human HepG2 cells assessed as proportion of cells with depolarized mitochondria at 50 nM measured after 48 hrs by JC-1 staining based flow cytometry analysis (Rvb= 9.1%); type: functional
[13] = system: HepG2; test: Induction of apoptosis in human HepG2 cells assessed as early apoptotic cells at 50 nM measured after 48 hrs by Annexin V-FITC/PI double staining based flow cytometry analysis (Rvb= 2.16%); type: functional
[14] = Cytotoxicity against human HBE cells assessed as inhibition of cell proliferation measured after 48 hrs by MTT assay; type: cell-based
[15] = system: NCI-H1975; test: Cytotoxicity against human NCI-H1975 cells assessed as inhibition of cell proliferation measured after 48 hrs by MTT assay; type: functional, cell-based; conditions: NCI-H1975, 48 h
[16] = system: HepG2; test: Induction of apoptosis in human HepG2 cells assessed as late apoptotic cells at 150 nM measured after 48 hrs by Annexin V-FITC/PI double staining based flow cytometry analysis (Rvb= 2.89%); type: functional
[17] = system: HepG2; test: Induction of apoptosis in human HepG2 cells assessed as early apoptotic cells at 100 nM measured after 48 hrs by Annexin V-FITC/PI double staining based flow cytometry analysis (Rvb= 2.16%); type: functional
[18] = system: HepG2; test: Cytotoxicity against human HepG2 cells assessed as inhibition of cell proliferation measured after 48 hrs by MTT assay; type: functional, cell-based; conditions: HepG2, 48 h
[19] = Hepatotoxicity in transgenic zebrafish Tg(1-fabp:EGFP) assessed as liver damage by measuring decrease in fluorescence intensity and area at 0.05 to 0.5 uM measured after 96 hrs; type: toxicity, tissue-based, Danio rerio; conditions: in vivo, dose 0.05-0.5 µM
[20] = system: HepG2; test: Induction of ROS generation in human HepG2 cells assessed as increase in ROS level at 50 to 150 nM measured after 48 hrs by DCFH-DA staining based flow cytometry analysis; type: functional, cell-based; conditions: dose 50-150 nM
[21] = system: HepG2; test: Induction of apoptosis in human HepG2 cells assessed as early apoptotic cells at 150 nM measured after 48 hrs by Annexin V-FITC/PI double staining based flow cytometry analysis (Rvb= 2.16%); type: functional
[22] = system: HepG2; test: Induction of mitochondrial membrane potential loss in human HepG2 cells assessed as proportion of cells with depolarized mitochondria at 200 nM measured after 48 hrs by JC-1 staining based flow cytometry analysis (Rvb= 9.1%); type: functional
[23] = system: HepG2; test: Induction of apoptosis in human HepG2 cells assessed as necrotic cells at 100 nM measured after 48 hrs by Annexin V-FITC/PI double staining based flow cytometry analysis (Rvb= 0.13%); type: functional
[24] = system: HepG2; test: Induction of apoptosis in human HepG2 cells assessed as late apoptotic cells at 50 nM measured after 48 hrs by Annexin V-FITC/PI double staining based flow cytometry analysis (Rvb= 2.89%); type: functional
[25] = system: HepG2; test: Induction of apoptosis in human HepG2 cells assessed as early apoptotic cells at 75 nM measured after 48 hrs by Annexin V-FITC/PI double staining based flow cytometry analysis (Rvb= 2.16%); type: functional
[26] = system: HepG2; test: Induction of mitochondrial membrane potential loss in human HepG2 cells assessed as proportion of cells with depolarized mitochondria at 150 nM measured after 48 hrs by JC-1 staining based flow cytometry analysis (Rvb= 9.1%); type: functional
[27] = system: HepG2; test: Induction of apoptosis in human HepG2 cells assessed as live cells at 75 nM measured after 48 hrs by Annexin V-FITC/PI double staining based flow cytometry analysis (Rvb= 94.8%); type: functional
[28] = Toxicity in zebrafish AB assessed as malformation rate at <12 uM measured at 72 hrs postfertilization; design: species or system Danio rerio; conditions: in vivo
[29] = system: HepG2; test: Induction of apoptosis in human HepG2 cells assessed as induction of morphological changes by measuring nuclear shrinkage and cleavage at 25 to 100 nM measured after 48 hrs by DAPI staining based inverted fluorescence microscope analysis; type: functional, cell-based; conditions: dose 25-100 nM
[30] = system: HepG2; test: Induction of mitochondrial membrane potential loss in human HepG2 cells assessed as proportion of cells with hyperpolarized mitochondria at 200 nM measured after 48 hrs by JC-1 staining based flow cytometry analysis (Rvb= 80.9%); type: functional
[31] = system: HepG2; test: Induction of cell cycle arrest in human HepG2 cells assessed as accumulation of cells in G0/G1 phase at 50 nM measured after 48 hrs by RNase A/PI staining based flow cytometry analysis (Rvb= 56.42+/- 0.27%); type: functional
[32] = system: HepG2; test: Induction of mitochondrial membrane potential loss in human HepG2 cells assessed as proportion of cells with hyperpolarized mitochondria at 75 nM measured after 48 hrs by JC-1 staining based flow cytometry analysis (Rvb= 80.9%); type: functional
[33] = system: HepG2; test: Induction of apoptosis in human HepG2 cells assessed as necrotic cells at 50 nM measured after 48 hrs by Annexin V-FITC/PI double staining based flow cytometry analysis (Rvb= 0.13%); type: functional
[34] = Cytotoxicity against human A549/DDP cells assessed as inhibition of cell proliferation measured after 48 hrs by MTT assay; type: functional, cell-based

CC(C)[C@]12O[C@H]1[C@@H]1O[C@]13[C@]1(O[C@H]1C[C@H]1C4=C(CC[C@@]13C)C(=O)OC4)[C@@H]2OC(=O)CCCCC[P+](c1ccccc1)(c1ccccc1)c1ccccc1.[Br-]
Activity [1]: 0.1%
IC50 [2]: 325 nM
Activity [3]: 74.7%
Activity [4]: 35.6%
Activity [5]: Non-Toxic
Activity [6]: 51.1%
Activity [7]: 49.6%
Activity [8]: Active
IC50 [9]: 334 nM
Activity [10]: Dose-Dependent Effect
Activity [11]: 59.9%
Activity [12]: 25.3%
Activity [13]: 3.89%
IC50 [14]: 210 nM
IC50 [15]: 88 nM
Activity [16]: 16.6%
Activity [17]: 27.8%
IC50 [18]: 67 nM
Activity [19]: Non-Toxic
Activity [20]: Active
Activity [21]: 33.7%
Activity [22]: 55.7%
Activity [23]: 0.18%
Activity [24]: 1.23%
Activity [25]: 15.5%
Activity [26]: 48.9%
Activity [27]: 76.8%
Activity [28]: Non-Toxic
Activity [29]: Active
Activity [30]: 44.3%
Activity [31]: 72.22%
Activity [32]: 64.4%
Activity [33]: 0.63%
IC50 [34]: > 10000 nM

From ChEMBL document CHEMBL4840355, “Antitumor and toxicity study of mitochondria-targeted triptolide derivatives using triphenylphosphine (TPP+) as a carrier” (Bioorg Med Chem, 2021)
